Test results from US20250205195A1, “BENZYLOXY-BENZYLAMINYL AMINO ACID DERIVATIVE FOR ADJUSTING TSLP/TSLPR SIGNAL TRANSMISSION” (AMTIXBIO CO., LTD., priority 2021, published 2025).

Tests used:
[1] = test system: DNCB-induced atopic dermatitis mice; assay: DNCB-induced atopic dermatitis mouse model; format: in vivo, ICR mice; details: vs DNCB-treated group
Procedure: ICR mice (Orient Bio Inc., male, 4 weeks old) were used, with four mice per group. The mice were acclimatized for one week under controlled conditions (23±2° C., humidity 55±10%, 12-hour light/dark cycle, animal facility at Sungkyunkwan University) and were shaved using clippers and depilatory cream before drug treatment. Following the conventional method, 1% DNCB (2,4-dinitrochlorobenzene, Sigma-Aldrich Co., St. Louis, USA) (200 l) was applied to the dorsal area of the mice every 2 days, four times a week for one week. Subsequently, 0.5% DNCB (200 l) was applied again at 2-day intervals, eight times, to induce atopic dermatitis (Ara, J., Mol Cell Toxicol 2019). One week after DNCB treatment, signs of lesions were confirmed in all mice. Then, the mice were topically administered with the compound 27 of the present invention, dissolved in sterile water at a concentration of 1% (w/v), starting from the point of 0.5% DNCB application, once daily for two weeks. The experimental animals were supplied with powdered feed (Purina, Switzerland), and water and feed were freely available throughout the experimental period. Symptoms associated with atopic dermatitis, such as erythema, edema, scaling, crusting, lichenification, inflammation, bleeding and skin dryness, were observed and recorded according to the Scoring Atopic Dermatitis (SCORAD) index in Table 2.
Using the Mosquito Blood Collection System, blood was drawn from the retro-orbital plexus, and serum was separated. Skin tissue proteins were extracted using a homogenizer in 0.2% PBS (phosphate buffer saline). To measure the concentration of IgE, an IgE ELISA kit (Shibayagi, Japan) was used following the manufacturer's instructions, and analysis was performed using an ELISA reader. The concentrations of TNF-α, IL-4, CCL22/MDC, MMP-12, and S100A9 were measured using Luminex® Assays (R&D Systems, USA).
Skin tissues from the mouse dorsal area were separated and fixed in 10% formalin (10% Neutral Buffered Formalin, Kang Dong Trading, South Korea) for 72 hours. The fixed tissues were washed with water for about 1 hour and then processed into paraffin blocks. The paraffin blocks were sectioned into 8 m slices using a microtome, followed by staining with Harris's hematoxylin solution. Subsequently, the sections were treated with 1% HCl-alcohol, neutralized with 0.5% ammonia solution, and stained with Eosin solution. Next, dehydration was performed using alcohol and xylene, and the sections were mounted on slides using Canada balsam. FIGS. 7 (a) and (b) represent the results.
To determine the concentrations of IgE and TSLP in mouse serum, IgE ELISA kit (Shibayagi, JP) and TSLP ELISA kit (R&D systems, USA) were used following the manufacturer's instructions. As shown in FIGS. 8 (a) and (b), the serum concentrations of IgE and TSLP increased in the DNCB-treated group.
Proteins were extracted from skin tissues of atopic dermatitis mice on the dorsal area, and the levels of TNF-α, IL-1β, CCL22/MDC, IL-4, MMP-12, and S100A9 were measured using Luminex® Assays (R&D systems, USA).

[2] = test system: p-STAT5; assay: TSLP-induced p-STAT5 in bone marrow-derived dendritic cells (BMDCs), Western blot; format: cell-based, mouse
Procedure: C57BL/6J mice (JA BIO, DBL-0011, male, 6-12 weeks old) were euthanized, and femurs and tibias were separated after cervical dislocation and then were stored in PBS (HyClone, Cat No. SH30028.02). After removing tissues as much as possible from femurs and tibias, both ends of the bones were cut vertically, and bone marrow was quickly collected with a 5 mL syringe (Korea Vaccine, 5 cc syringe 22 g). After centrifugation at 1800 rpm for 3 minutes, the supernatant was discarded, 10 mL PBS was added to resuspend the cells, and the mixture was filtered through a 100 µm cell strainer. […]
The obtained BMDCs were pre-treated with compound 27, Jak1 inhibitor (Filgotinib, Selleck, Cat No. JS7605), or Jak2 inhibitor (SD-1029, Sigma, Cat No. 573098) 30 minutes or 1 hour prior to treatment. […] After quantifying the protein using the BCA protein assay kit (Thermo, Cat No. 23225), 5×SDS-PAGE loading buffer (Biosesang, Cat No. SF2002-110-00) was added, boiled for 5 minutes at 103° C., and stored at −20° C. […]
BR1706516)] for 2 hours at room temperature. After washing with TBS-T, the membrane was incubated with ECL solution (Thermo, Cat No. 32209), and protein bands were detected using the iBright imaging system (Invitrogen, Model No. FL1500). Each band intensity was measured using ImageJ software (version 1.38; National Institutes of Health), and the pSTAT5/STAT ratio was calculated. […]

CCC(NC)C(=O)NCc1ccc(OCc2ccc(C(F)(F)F)cc2)cc1 (racemic) [Compound 27, (R)/(S)-2-(methylamino)-N-(4-((4-trifluoromethyl)benzyl)oxy)benzyl)butanamide]
CCL22/MDC level in skin tissue ([1]; Luminex): significant decrease
IL-1β level in skin tissue ([1]; Luminex): significant decrease
IL-4 level in skin tissue ([1]; Luminex): significant decrease
MMP-12 level in skin tissue ([1]; Luminex): significant decrease
S100A9 level in skin tissue ([1]; Luminex): significant decrease
TNF-α level in skin tissue ([1]; Luminex): significant decrease
symptoms of dermatitis (SCORAD index) ([1]; topical 1% (w/v), once daily, two weeks): significant reduction
expression of inflammatory cells (H&E, skin tissue) ([1]; topical 1% (w/v)): significant decrease
serum IgE concentration ([1]; topical 1% (w/v)): decrease
serum TSLP concentration ([1]; topical 1% (w/v)): decrease
thickness of the epidermal layer ([1]; topical 1% (w/v)): significant reduction
reduction in p-STAT5 ([2]; 2 pM, compared to the TSLP-treated group): 51%
p-STAT5 (pSTAT5/STAT ratio) ([2]; BMDCs, TSLP treatment): significantly reduced
